Laboratory results from US20230150970A1, “AMINOPYRIMIDINE DERIVATIVES AND THEIR USE AS ARYL HYDROCARBON RECEPTOR MODULATORS” (DONG-A ST CO., LTD., priority 2020, published 2023).

Molecular target: T1, AhR (Homo sapiens, UniProt P35869)
T1 sequence (P35869 11-848): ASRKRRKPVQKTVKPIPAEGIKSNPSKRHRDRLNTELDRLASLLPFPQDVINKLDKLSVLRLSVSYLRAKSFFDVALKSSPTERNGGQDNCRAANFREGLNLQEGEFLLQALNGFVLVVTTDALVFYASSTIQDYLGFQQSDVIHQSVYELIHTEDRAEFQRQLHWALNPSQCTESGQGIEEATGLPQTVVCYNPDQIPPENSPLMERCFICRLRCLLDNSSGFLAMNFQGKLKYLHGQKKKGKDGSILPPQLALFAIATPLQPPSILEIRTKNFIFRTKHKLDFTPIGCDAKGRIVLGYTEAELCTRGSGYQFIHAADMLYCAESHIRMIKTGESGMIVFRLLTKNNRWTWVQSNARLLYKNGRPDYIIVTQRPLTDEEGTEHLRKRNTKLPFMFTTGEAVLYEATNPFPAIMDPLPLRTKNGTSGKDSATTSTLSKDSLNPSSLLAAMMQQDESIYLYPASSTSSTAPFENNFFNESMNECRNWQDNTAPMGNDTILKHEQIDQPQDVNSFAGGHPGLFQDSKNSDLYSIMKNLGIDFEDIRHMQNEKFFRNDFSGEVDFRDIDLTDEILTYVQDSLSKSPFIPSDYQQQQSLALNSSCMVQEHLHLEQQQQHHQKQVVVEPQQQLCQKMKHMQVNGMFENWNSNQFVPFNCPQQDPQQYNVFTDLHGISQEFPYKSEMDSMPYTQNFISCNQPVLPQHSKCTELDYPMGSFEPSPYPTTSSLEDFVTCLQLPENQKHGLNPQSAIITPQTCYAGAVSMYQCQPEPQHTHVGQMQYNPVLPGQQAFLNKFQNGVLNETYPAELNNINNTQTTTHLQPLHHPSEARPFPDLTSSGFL
Assay: In Vitro Assay 1: XRE-luciferase reporter assay, antagonism in human cell line (HepG2)
Details: Assay 1: AhR-Luc Human Antagonism (IC50, nM), values marked *: kynurenine 50 μM, 6 hours
Excerpt: In Vitro XRE-Luciferase Reporter Assay (In Vitro Assay 1, 2, 3) AhR activation leads the induction of target gene expression such as CYP1A1 and CYPIB1 by AhR binding to AhR-responsive DNA elements also known as xenobiotics responsive elements (XREs). The assay for measuring AhR activity herein is the luciferase assay using cell lines transfected with luciferase reporter plasmid containing XREs at the upstream of the reporter gene. Cells transfected with XRE-luciferase reporter (XRE-Luc), plasmid drive luciferase activity reflecting activation and inhibition of AhR in the cells. […] Kynurenine (an endogenous AhR agonist), was used to stimulate cells to test antagonistic properties of the compounds. The half-maximal inhibitory concentration (IC50), or half-maximal effective concentration (EC50), value was calculated using nonlinear regression (four parameters), with Prism8.0 software (GraphPad).
In Vitro Assay 1: Antagonism in Human Cell Line
HepG2 (human hepatoma cell line) cell line with a XRE-luciferase reporter either transiently or stably (Invivogen) were plated in complete medium and incubated at 37° C. in a CO2 incubator. After 24 hours, cells were treated with kynurenine (50* or 200 μM) alone (negative control) or with test compounds for 6 hours. Luciferase activity was measured with a commercial kit such as the Promega Luciferase kit or Invivogen Luciferase kit. Relative luciferase activity (Firefly/Nano-Luc) was used to calculate IC50 values. […] (IC50 values are grouped as A, B, C and D, whereby A: IC50<0.01 μM; B: 0.01<IC50<0.1 μM; C: 0.1<IC50<1.0 μM; D: IC50>1.0 μM)

**Q.** How did the IC50 turn out when `O=[N+]([O-])c1ccc(N2CCN(c3cc(-c4ccc(Cl)cc4)nc(-c4cccnc4)n3)CC2)cc1` [Example 121, 4-(4-chlorophenyl)-6-(4-(4-nitrophenyl)piperazin-1-yl)-2-(pyridin-3-yl)pyrimidine] was run?
**A.** Its IC50 is greater than 1000 nM.

**Q.** For `CN1CCN(C2CCN(c3cc(-c4ccc(Cl)cc4)nc(-c4cccnc4)n3)C2)CC1` (centres unmarked) [Example 122, 4-(4-chlorophenyl)-6-(3-(4-methylpiperazin-1-yl)pyrrolidin-1-yl)-2-(pyridin-3-yl)pyrimidine], which IC50 is on record?
**A.** Its IC50 is 10 to 100 nM.

**Q.** `Clc1ccc(-c2cc(N3CCN(C(c4ccccc4)c4ccccc4)CC3)nc(-c3cccnc3)n2)cc1` [Example 123, 4-(4-benzhydrylpiperazin-1-yl)-6-(4-chlorophenyl)-2-(pyridin-3-yl)pyrimidine] was tested. Which IC50 did it give?
**A.** The IC50 was greater than 1000 nM.

**Q.** `Clc1ccc(-c2cc(N3CCN(C(c4ccccc4)c4ccc(Cl)cc4)CC3)nc(-c3cccnc3)n2)cc1` (centres unmarked) [Example 124, 4-(4-chlorophenyl)-6-(4-((4-chlorophenyl)(phenyl)methyl)piperazin-1-yl)-2-(pyridin-3-yl)pyrimidine] was tested. Which IC50 did it give?
**A.** Its IC50 is greater than 1000 nM.

**Q.** How did the IC50 turn out when `Clc1ccc(-c2cc(N3CCC4(C=Cc5ccccc54)CC3)nc(-c3cccnc3)n2)cc1` [Example 125, 1′-(6-(4-chlorophenyl)-2-(pyridin-3-yl)pyrimidin-4-yl)spiro[indene-1,4′-piperidine]] was run?
**A.** Its IC50 is 100 to 1000 nM.

**Q.** Which IC50 does the source give for `Clc1ccc(-c2cc(NC3CCNC3)nc(-c3cccnc3)n2)cc1` (centres unmarked) [Example 126, 6-(4-chlorophenyl)-2-(pyridin-3-yl)-N-(pyrrolidin-3-yl)pyrimidin-4-amine] here?
**A.** The IC50 was greater than 1000 nM.

**Q.** `Clc1ccc(-c2cc(N[C@@H]3CCNC3)nc(-c3cccnc3)n2)cc1` [Example 127, (R)-6-(4-chlorophenyl)-2-(pyridin-3-yl)-N-(pyrrolidin-3-yl)pyrimidin-4-amine] was tested. Which IC50 did it give?
**A.** Its IC50 is greater than 1000 nM.

**Q.** `Clc1ccc(-c2cc(NC[C@@H]3CCNC3)nc(-c3cccnc3)n2)cc1` [Example 128, (R)-6-(4-chlorophenyl)-2-(pyridin-3-yl)-N-(pyrrolidin-3-ylmethyl)pyrimidin-4-amine] was tested. Which IC50 did it give?
**A.** Its IC50 is greater than 1000 nM.

**Q.** How did the IC50 turn out when `Clc1ccc(-c2cc(NCCN3CCCC3)nc(-c3cccnc3)n2)cc1` [Example 129, 6-(4-chlorophenyl)-2-(pyridin-3-yl)-N-(2-(pyrrolidin-1-yl)ethyl)pyrimidin-4-amine] was run?
**A.** The IC50 was greater than 1000 nM.

**Q.** For `Clc1ccc(-c2cc(NCCCN3CCCC3)nc(-c3cccnc3)n2)cc1` [Example 130, 6-(4-chlorophenyl)-2-(pyridin-3-yl)-N-(3-(pyrrolidin-1-yl)propyl)pyrimidin-4-amine], which IC50 is on record?
**A.** The IC50 was greater than 1000 nM.

**Q.** How did the IC50 turn out when `CN1CCCC1CCNc1cc(-c2ccc(Cl)cc2)nc(-c2cccnc2)n1` (centres unmarked) [Example 131, 6-(4-chlorophenyl)-N-(2-(1-methylpyrrolidin-2-yl)ethyl)-2-(pyridin-3-yl)pyrimidin-4-amine] was run?
**A.** Its IC50 is greater than 1000 nM.

**Q.** How did the IC50 turn out when `Clc1ccc(-c2cc(NC3CCN(Cc4ccccc4)C3)nc(-c3cccnc3)n2)cc1` (centres unmarked) [Example 132, N-(1-benzylpyrrolidin-3-yl)-6-(4-chlorophenyl)-2-(pyridin-3-yl)pyrimidin-4-amine] was run?
**A.** Its IC50 is 100 to 1000 nM.

**Q.** With `O[C@@H]1CNC[C@@H]1Nc1cc(-c2ccc(Cl)cc2)nc(-c2cccnc2)n1` [Example 133, (3R,4S)-4-((6-(4-chlorophenyl)-2-(pyridin-3-yl)pyrimidin-4-yl)amino)pyrrolidin-3-ol] as the molecule, how does the IC50 read?
**A.** Its IC50 is greater than 1000 nM.

**Q.** `O[C@H]1CNC[C@H]1Nc1cc(-c2ccc(Cl)cc2)nc(-c2cccnc2)n1` [Example 134, (3S,4R)-4-((6-(4-chlorophenyl)-2-(pyridin-3-yl)pyrimidin-4-yl)amino)pyrrolidin-3-ol] was tested. Which IC50 did it give?
**A.** Its IC50 is greater than 1000 nM.

**Q.** `Clc1ccc(-c2cc(N3CCCC3)nc(-c3cccnc3)n2)cc1` [Example 135, 4-(4-chlorophenyl)-2-(pyridin-3-yl)-6-(pyrrolidin-1-yl)pyrimidine] was tested. Which IC50 did it give?
**A.** The IC50 was 10 to 100 nM.

**Q.** With `CC1CCCN1c1cc(-c2ccc(Cl)cc2)nc(-c2cccnc2)n1` (centres unmarked) [Example 136, 4-(4-chlorophenyl)-6-(2-methylpyrrolidin-1-yl)-2-(pyridin-3-yl)pyrimidine] as the molecule, how does the IC50 read?
**A.** The IC50 was 100 to 1000 nM.

**Q.** `OCC1CCN(c2cc(-c3ccc(Cl)cc3)nc(-c3cccnc3)n2)C1` (centres unmarked) [Example 138, (1-(6-(4-chlorophenyl)-2-(pyridin-3-yl)pyrimidin-4-yl)pyrrolidin-3-yl)methanol] was tested. Which IC50 did it give?
**A.** The IC50 was less than 10 nM.

**Q.** For `F[C@@H]1CCN(c2cc(-c3ccc(Cl)cc3)nc(-c3cccnc3)n2)C1` [Example 139, (R)-4-(4-chlorophenyl)-6-(3-fluoropyrrolidin-1-yl)-2-(pyridin-3-yl)pyrimidine], which IC50 is on record?
**A.** The IC50 was 10 to 100 nM.

**Q.** How did the IC50 turn out when `NC1CCN(c2cc(-c3ccc(Cl)cc3)nc(-c3cccnc3)n2)C1` (centres unmarked) [Example 140, 1-(6-(4-chlorophenyl)-2-(pyridin-3-yl)pyrimidin-4-yl)pyrrolidin-3-amine] was run?
**A.** The IC50 was greater than 1000 nM.

**Q.** How did the IC50 turn out when `CNC1CCN(c2cc(-c3ccc(Cl)cc3)nc(-c3cccnc3)n2)C1` (centres unmarked) [Example 141, 1-(6-(4-chlorophenyl)-2-(pyridin-3-yl)pyrimidin-4-yl)-N-methylpyrrolidin-3-amine] was run?
**A.** Its IC50 is greater than 1000 nM.

**Q.** With `COC(=O)[C@@H]1CCCN1c1cc(-c2ccc(Cl)cc2)nc(-c2cccnc2)n1` [Example 142, methyl (6-(4-chlorophenyl)-2-(pyridin-3-yl)pyrimidin-4-yl)prolinate] as the molecule, how does the IC50 read?
**A.** The IC50 was 100 to 1000 nM.

**Q.** `CC(O)C(C)Nc1cc(-c2ccc(Cl)cc2)nc(-c2cccnc2)n1` (centres unmarked) [Example 145, 3-((6-(4-chlorophenyl)-2-(pyridin-3-yl)pyrimidin-4-yl)amino)butan-2-ol] was tested. Which IC50 did it give?
**A.** The IC50 was 100 to 1000 nM.

**Q.** With `OC[C@@H]1CCCN(c2cc(-c3ccc(Cl)cc3)nc(-c3cccnc3)n2)C1` [Example 147, (R)-(1-(6-(4-chlorophenyl)-2-(pyridin-3-yl)pyrimidin-4-yl)piperidin-3-yl)methanol] as the molecule, how does the IC50 read?
**A.** The IC50 was less than 10 nM.

**Q.** How did the IC50 turn out when `OC[C@H]1CCCN(c2cc(-c3ccc(Cl)cc3)nc(-c3cccnc3)n2)C1` [Example 148, (S)-(1-(6-(4-chlorophenyl)-2-(pyridin-3-yl)pyrimidin-4-yl)piperidin-3-yl)methanol] was run?
**A.** The IC50 was 10 to 100 nM.

**Q.** Which IC50 does the source give for `Clc1ccc(-c2cc(NCCN3CCCCC3)nc(-c3cccnc3)n2)cc1` [Example 149, 6-(4-chlorophenyl)-N-(2-(piperidin-1-yl)ethyl)-2-(pyridin-3-yl)pyrimidin-4-amine] here?
**A.** Its IC50 is greater than 1000 nM.

**Q.** For `N#CC1CCN(c2cc(-c3ccc(Cl)cc3)nc(-c3cccnc3)n2)CC1` [Example 150, 1-(6-(4-chlorophenyl)-2-(pyridin-3-yl)pyrimidin-4-yl)piperidine-4-carbonitrile], which IC50 is on record?
**A.** Its IC50 is less than 10 nM.

**Q.** Which IC50 does the source give for `OC1(c2cccc(C(F)(F)F)c2)CCN(c2cc(-c3ccc(Cl)cc3)nc(-c3cccnc3)n2)CC1` [Example 151, 1-(6-(4-chlorophenyl)-2-(pyridin-3-yl)pyrimidin-4-yl)-4-(3-(trifluoromethyl)phenyl)piperidin-4-ol] here?
**A.** Its IC50 is greater than 1000 nM.

**Q.** Which IC50 does the source give for `Clc1ccc(-c2cc(N3CCC(N4CCCC4)CC3)nc(-c3cccnc3)n2)cc1` [Example 152, 4-(4-chlorophenyl)-2-(pyridin-3-yl)-6-(4-(pyrrolidin-1-yl)piperidin-1-yl)pyrimidine] here?
**A.** Its IC50 is 100 to 1000 nM.

**Q.** Which IC50 does the source give for `OC1(c2ccc(Cl)cc2)CCN(c2cc(-c3ccc(Cl)cc3)nc(-c3cccnc3)n2)CC1` [Example 153, 4-(4-chlorophenyl)-1-(6-(4-chlorophenyl)-2-(pyridin-3-yl)pyrimidin-4-yl)piperidin-4-ol] here?
**A.** Its IC50 is greater than 1000 nM.

**Q.** `CC(=O)C1(c2ccccc2)CCN(c2cc(-c3ccc(Cl)cc3)nc(-c3cccnc3)n2)CC1` [Example 155, 1-(1-(6-(4-chlorophenyl)-2-(pyridin-3-yl)pyrimidin-4-yl)-4-phenylpiperidin-4-yl)ethan-1-one] was tested. Which IC50 did it give?
**A.** The IC50 was greater than 1000 nM.

**Q.** With `Clc1ccc(-c2cc(N3CCC(N4CCOCC4)CC3)nc(-c3cccnc3)n2)cc1` [Example 156, 4-(1-(6-(4-chlorophenyl)-2-(pyridin-3-yl)pyrimidin-4-yl)piperidin-4-yl)morpholine] as the molecule, how does the IC50 read?
**A.** The IC50 was less than 10 nM.

**Q.** With `Clc1ccc(-c2cc(N3CCC(c4cc(Cl)cc(Cl)c4)CC3)nc(-c3cccnc3)n2)cc1` [Example 157, 4-(4-chlorophenyl)-6-(4-(3,5-dichlorophenyl)piperidin-1-yl)-2-(pyridin-3-yl)pyrimidine] as the molecule, how does the IC50 read?
**A.** Its IC50 is greater than 1000 nM.

**Q.** Which IC50 does the source give for `Clc1ccc(-c2cc(NCC3CCCN(C4CCCCC4)C3)nc(-c3cccnc3)n2)cc1` (centres unmarked) [Example 158, 6-(4-chlorophenyl)-N-((1-cyclohexylpiperidin-3-yl)methyl)-2-(pyridin-3-yl)pyrimidin-4-amine] here?
**A.** The IC50 was 100 to 1000 nM.

**Q.** How did the IC50 turn out when `Clc1ccc(-c2cc(NCC3CCN(Cc4ccccc4)CC3)nc(-c3cccnc3)n2)cc1` [Example 159, N-((1-benzylpiperidin-4-yl)methyl)-6-(4-chlorophenyl)-2-(pyridin-3-yl)pyrimidin-4-amine] was run?
**A.** The IC50 was 100 to 1000 nM.

**Q.** With `CCOC(=O)CC(=O)C1CCN(c2cc(-c3ccc(Cl)cc3)nc(-c3cccnc3)n2)CC1` [Example 160, ethyl 3-(1-(6-(4-chlorophenyl)-2-(pyridin-3-yl)pyrimidin-4-yl)piperidin-4-yl)-3-oxopropanoate] as the molecule, how does the IC50 read?
**A.** Its IC50 is greater than 1000 nM.
